Measured values reported in patent publication US12145913B2, “Inhibition of Olig2 activity” (Curtana Pharmaceuticals, Inc., priority 2016, dated 2024).
Where a name gives a salt, the structure may show the parent alone.

Experiments:
[1] = test system: GBM8 human glioblastoma cells; assay: GBM8 viability assay (Cell Titer Glo); type: cell-based; settings: 72 h, Table 1, 3 days incubation, luminescence
Outline: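 Patient-derived GBM4 and GBM8 neurosphere cells, 4000 per well in EGF/bFGF/heparin-supplemented NeuroCult medium, were exposed to compound (added in 1% DMSO solution) for 3 days at 37° C. Growth was read by CellTiter-Glo luminescence versus DMSO wells, and IC50s came from 4-parameter fits of serial dilutions.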

[2] = test system: GBM4 human glioblastoma cells; assay: GBM4 viability assay (Cell Titer Glo); type: cell-based; settings: Table 3, GBM4 cells, read-out: GBM4 IC50 (Cytotoxicity)
Description: Cell culture medium was prepared from a NSA proliferation kit (Neurocult) and NeuroCult supplements (Stemcell Tech Cat. #05751) and treated with 20 μL of 10 μg/mL rh EGF, 10 μL of 10 μg/mL rh bFGF and 10 μL of 0.2% Heparin. In this medium, human glioblastoma cells were cultured in ultra-low attachment tissue culture flasks until 1×10^6 cells ml was achieved (GBM4 and GBM8 are distinct neurosphere cell cultures derived from these human patient tissues). GBM4 and GBM8 cells were dissociated and 10 mL of media containing 4000 human glioblastoma cells per 90 μL were transferred to an ultra-low binding 96-well plate and incubated at 37° C. overnight. On the following day, 10 μL of a 1% DMSO solution of test compound in assay medium was added to wells containing the cell suspension and the mixture incubated at 37° C. for 3 days. At this time, the plate was removed from the incubator and allowed to reach room temperature. After about 30 minutes, 50 μL of Cell Titer Glo solution was added to each well and the plate shaken for 1 minute at low speed. After 10 minutes luminescence was recorded using a Tecan Safire2 reader.
Reduction in luminescence compared to DMSO only control wells was used to determine the percentage inhibition of cell growth. IC50s were calculated using the % inhibition of luminescence for serial dilutions of compounds fitted to a 4-parameter fit within the Prism (San Diego) curve fitting program. Tables 1 (compounds 3-188) and 2 (compounds 190-212) show the GBM4 IC50 and GBM8 IC50 for compounds described herein.

[3] = test system: Human GBM8 glioblastoma flank tumor; assay: Tumor growth inhibition in mouse flank tumor model, GBM8; type: in vivo; settings: NSG mice; for Compound + Temozolomide + radiation (median TTE): combined with temozolomide and radiation; for Compound (median TTE): compound alone
Description: (§1) The animals were fed ad libitum water (reverse osmosis, 1 ppm Cl) and NIH 31 Modified and Irradiated Lab Diet® consisting of 18.0% crude protein. 5.0% crude fat, and 5.0% crude fiber. The mice were housed on irradiated Enrich-o'Cobs™ bedding in static microisolators on a 12-hour light cycle at 20-22° C. (68-72° F.) and 40-60% humidity.
(§2) Human GBM4 or GBM8 glioblastoma cell lines were maintained in Complete NeuroCult Proliferation Medium containing 20 ng/mL EGF, 10 ng/mL bFGF and 2 μg/mL Heparin. The cells were cultured in ultra low attachment T75 flask (Corning REF-3814) and the resulting neurospheres were dissociated every 4-6 days using the NeuroCult Chemical Dissociation kit (Stemcell Technologies Cat #05707). Cell cultures were maintained in tissue culture flasks in a humidified incubator at 37° C., in an atmosphere of 5% CO2 and 95% air. Cell samples were collected one passage prior to cell implant and preserved in freezing media.
(§3) Cells used for implantation were harvested during log phase growth and resuspended in cold PBS containing in 50% Matrigel™ (BD Biosciences). Tumor growth was initiated on Day 1 by subcutaneous injection of GBM4 cells into the right flank of each mouse with 1×10^7 tumor cells (0.1 mL cell suspension) and tumor growth was monitored in four groups (n=8) beginning on Day 12. Groups for treatment included group 1 (vehicle), group 2 (test Olig2 inhibitor), group 3 (treatment with temozolomide and radiation) and group 4 (test Olig2 inhibitor combined with temozolomide and radiation). The tumors were measured with a caliper in two dimensions to monitor size. Tumor size was calculated using the formula. Tumor Volume (mm^3)=w^2×½: where w=width and l=length, in mm, of a tumor. Tumor weight may be estimated with the assumption that 1 mg is equivalent to 1 mm^3 of tumor volume Tumors were measured with a caliper twice weekly for the duration of the study Temozolomide (Merck & Co., Lot No. L046487) was administered orally at doses of 5 mg/kg or 10 mg/Kg). Radiation was adminstered with a Faxitron model CP-160 X-ray system. Each animal was immobilized in a live restrainer. Therapy was administered for 1.3 min at 160 KV and 6.0 mA, providing a dose of 1 gray (Gy) for each animal.
The study endpoint was a tumor volume of 2000 mm^3 or Day 152, whichever came first. Each animal was euthanized for tumor progression (TP) when its tumor reached the volume endpoint. The time to endpoint (TTE) for each animal was calculated with the following equation: […]
The data set is comprised of the first observation that exceeded the study endpoint volume and the three consecutive observations that immediately preceded the attainment of the endpoint volume. […] In instances in which the log-transformed calculated TTE preceded the day prior to reaching endpoint or exceeded the day of reaching tumor volume endpoint, a linear interpolation was performed to approximate the TTE. Any animal determined to have died from treatment-related (TR) causes was assigned a TTE value equal to the day of death. […]
Treatment outcome was evaluated from tumor growth delay (TGD), which was defined as the increase in the median TTE for a treatment group compared to the control group: TGD=T−C, expressed in days, or as a percentage of the median TTE of the control group: TGD(%)=T−C/C×100 • T=median TTE for a treatment group, • C=median TTE for the control group.

[4] = test system: Human GBM4 glioblastoma flank tumor; assay: Tumor growth inhibition in mouse flank tumor model, GBM4; type: in vivo; settings: NSG mice
Description: as §1, §2
as §3, with “Tumor Volume (mm^3)=w^2×½: where w=width and l=length, in mm, of a tumor.” left out, “Radiation was adminstered with a Faxitron model CP-160 X-ray system. Each animal was immobilized in a live restrainer. Therapy was administered for 1.3 min at 160 KV and 6.0 mA, providing a dose of 1 gray (Gy) for each animal.” left out
The study endpoint was a tumor volume of 2000 mm^3 or Day 152, whichever came first. […] The time to endpoint (TTE) for each animal was calculated with the following equation: […]

[5] = test system: G06 patient-derived glioblastoma cells, intracranial; assay: Survival in orthotopic glioblastoma mouse model, G06; type: in vivo; settings: athymic nude mice, oral daily from day 4, percent increase of median versus vehicle
From the text: (§4) Patient-derived xenograft samples were used in this study as a more faithful representation of human glioblastoma compared to immortalized cell lines. The maintenance of patient-derived xenografts exclusively by serial passage in mice has been advocated as a means to faithfully preserve the genetic features of the original tumors. Tumor integrity is periodically confirmed by short tandem repeat assessment. These methods were used to obtain cell suspensions of G06 cells for use in vivo. Briefly, short-term cultured cells were injected into the flank of athymic nude mice (Nu/Nu: Envigo). Tumors grown in these mice were harvested and cultured to afford cell suspension for viability studies. Mice with tumors 1-1.5 cm^3 were euthanized using CO2. Tumors were swabbed with Betadine (Carefusion #29906-016) and excised with a sterile scalpel. The tumor sample was placed in a culture plate and broken up with a sterile syringe. […] The pellets were resuspended in Stem Cell Media to a concentration of […] as measured by a hemocytometer.
(§5) G06 or cultured GBM8 cells (3×10^5, 3 μL), were injected intracranially into anesthetized female athymic nude mice (Nu/Nu: Envigo). […] Animal counts and body weight were monitored daily. Survival improvement was measured as a percent increase of the median for drug treatment versus vehicle.

[6] = Solubility of compound 174 in DI water; type: physicochemical; settings: thermodynamic from solid, 2 determinations, read-out: Estimated solubility
Description: Into a 1 dram vial was added a sample of compound 174. DI water was added until the solid was fully dissolved. Solubility was estimated from the amount of solid per mL of water added. Estimated solubility ˜30 mg/mL (2 determinations).

[7] = test system: GBM8 cells, intracranial; assay: Survival in orthotopic glioblastoma mouse model, GBM8; type: in vivo; settings: athymic nude mice, oral daily from day 4, percent increase of median versus vehicle
From the text: as §4, §5

Structure (SMILES) | IC50 [1] [nM] | IC50 [2] [nM] | Compound + Temozolomide + radiation (median TTE) [3] [days] | Compound (median TTE) [3] [days] | Compound + Temozolomide + radiation (median TTE) ([4]; combined with temozolomide and radiation) [days] | Compound (median TTE) ([4]; compound alone, endpoint 2000 mm^3 or Day 152) [days] | G06: Estimated Median Survival Benefit (%) [5] [%] | solubility [6] [mg/mL] | GBM8: Estimated Median Survival Benefit (%) [7] [%]
Cc1cc(NCCCN(C)C)nc(NC(=O)Nc2ccc(Cl)c(Cl)c2)n1 [Compound 174, 1-(3,4-dichlorophenyl)-3-(4-((3-(dimethylamino)propyl)amino)-6-methylpyrimidin-2-yl)urea dimethanesulfonic acid salt] | < 500 | 240 | >140.0 | 61.3 | 152.0 | 73.0 | 54 | ~30 | 48
Cc1cc(N)nc(NC(=O)Nc2ccc(OC(F)(F)F)cc2)n1 [Compound 176, 1-(4-amino-6-methylpyrimidin-2-yl)-3-(4-(trifluoromethoxy)-phenyl)urea] | < 500 |  | 127.9 | 56.4 |  |  | 46 |  | 72
